Results taken from BindingDB's records for doi:10.1021/jm031026e (Universit&#224, 2004).

The compounds below were run against Sigma non-opioid intracellular receptor 1 (Cavia porcellus) (UniProt Q60492) (assay: In vitro binding affinity at opioid sigma-1 receptor in guinea pig brain membranes by (+)-[3H]pentazocine displacement.).
Sequence of Sigma non-opioid intracellular receptor 1 (Cavia porcellus) (Q60492 whole entry, looked up): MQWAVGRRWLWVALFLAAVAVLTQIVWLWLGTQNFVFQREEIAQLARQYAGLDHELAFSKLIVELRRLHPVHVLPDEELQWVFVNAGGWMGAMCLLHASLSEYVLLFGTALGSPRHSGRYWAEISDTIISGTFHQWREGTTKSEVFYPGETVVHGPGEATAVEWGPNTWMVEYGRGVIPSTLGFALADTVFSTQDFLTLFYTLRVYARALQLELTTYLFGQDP

Compound | Ki [nM]
c1ccc(CCN2CCCCC2)cc1 [N-phenethylpiperidine] | 309
COc1cccc2c1CCCC2CCN1CCN(C2CCCCC2)CC1 (centres undefined) [1-Cyclohexyl-4-[2-(5-methoxy-1,2,3,4-tetrahydro-naphthalen-1-yl)-ethyl]-piperazine] | 1.57
COc1ccc2c(c1)CCCC2CCCN1CCN(C2CCCCC2)CC1 (centres undefined) [1-Cyclohexyl-4-[3-(6-methoxy-1,2,3,4-tetrahydro-naphthalen-1-yl)-propyl]-piperazine] | 0.36
COc1cccc2c1CCCC2N1CCN(C2CCCCC2)CC1 (centres undefined) [1-Cyclohexyl-4-(5-methoxy-1,2,3,4-tetrahydro-naphthalen-1-yl)-piperazine] | 0.4
COc1ccc2c(c1)C(CCCN1CCN(C3CCCCC3)CC1)CCC2 (centres undefined) [1-Cyclohexyl-4-[3-(7-methoxy-1,2,3,4-tetrahydro-naphthalen-1-yl)-propyl]-piperazine] | 9.04
COc1cccc2c1CCCC2CN1CCN(C2CCCCC2)CC1 (centres undefined) [1-Cyclohexyl-4-(5-methoxy-1,2,3,4-tetrahydro-naphthalen-1-ylmethyl)-piperazine] | 0.31

Second part, the compound after the results:

Ki [nM] | Compound
2.16 | c1ccc2c(CCCN3CCN(C4CCCCC4)CC3)cccc2c1 [1-Cyclohexyl-4-(3-naphthalen-1-yl-propyl)-piperazine]
0.22 | c1ccc2c(CCCCN3CCN(C4CCCCC4)CC3)cccc2c1 [1-Cyclohexyl-4-(4-naphthalen-1-yl-butyl)-piperazine]
0.61 | c1ccc2c(c1)CCCC2CCCN1CCN(C2CCCCC2)CC1 (centres undefined) [1-Cyclohexyl-4-[3-(1,2,3,4-tetrahydro-naphthalen-1-yl)-propyl]-piperazine]
2.4 | c1ccc2c(CCCCCN3CCN(C4CCCCC4)CC3)cccc2c1 [1-Cyclohexyl-4-(5-naphthalen-1-yl-pentyl)-piperazine]
3.07 | COc1cccc2c1CCCC2CCCCCCN1CCN(C2CCCCC2)CC1 (centres undefined) [1-Cyclohexyl-4-[6-(5-methoxy-1,2,3,4-tetrahydro-naphthalen-1-yl)-hexyl]-piperazine]
0.69 | Oc1ccc2c(c1)CCCC2CCCN1CCN(C2CCCCC2)CC1 (centres undefined) [5-[3-(4-Cyclohexyl-piperazin-1-yl)-propyl]-5,6,7,8-tetrahydro-naphthalen-2-ol]
1.45 | c1ccc2c(c1)CCCC2CCCCCN1CCN(C2CCCCC2)CC1 (centres undefined) [1-Cyclohexyl-4-[5-(1,2,3,4-tetrahydro-naphthalen-1-yl)-pentyl]-piperazine]
1.52 | COc1cccc2c1CCCC2CCCCCN1CCN(C2CCCCC2)CC1 (centres undefined) [1-Cyclohexyl-4-[5-(5-methoxy-1,2,3,4-tetrahydro-naphthalen-1-yl)-pentyl]-piperazine]
